According to US7022696B2, “Piperazino-derivatives and their use as PDE4 inhibitor” (Altana Pharma AG, priority 2001, dated 2006):
Structures can show the parent of a compound that is named as a salt.

In the case of `CCOc1ccc(C2=NN(c3ccc(C(=O)N4CCN(c5cnn(-c6ccccc6)c(=O)c5Cl)CC4)cc3)C(=O)[C@@H]3CC=CC[C@H]23)cc1OCC` [Compound 12, (4aS,8aR)-2-{4-[4-(5-Chloro-6-oxo-1-phenyl-1,6-dihydro-pyridazin-4-yl)-piperazine-1-carbonyl]-phenyl}-4-(3,4-diethoxy-phenyl)-4a,5,8,8a-tetrahydro-2H-phthalazin-1-one], the melting point is reported as 148 to 151 °C.
Molecule `CCOc1ccc(C2=NN(c3ccc(C(=O)N4CCN(c5ccncc5)CC4)cc3)C(=O)[C@@H]3CC=CC[C@H]23)cc1OCC.Cl` [Compound 27, (4aS,8aR)-4-(3,4-Diethoxy-phenyl)-2-{4-[1-(4-pyridin-4-yl-piperazin-1-yl)-methanoyl]-phenyl}-4a,5,8,8a-tetrahydro-2H-phthalazin-1-one hydrochloride] has a melting point of 164 to 167 °C.
Molecule `CCOc1ccc(C2=NN(c3ccc(C(=O)N4CCN(CCN5CCCC5)CC4)cc3)C(=O)[C@@H]3CC=CC[C@H]23)cc1OCC.Cl.Cl` [Compound 24, (4aS,8aR)-4-(3,4-Diethoxy-phenyl)-2-(4-{1-[4-(2-pyrrolidin-1-yl-ethyl)-piperazin-1-yl]-methanoyl}-phenyl)-4a,5,8,8a-tetrahydro-2H-phthalazin-1-one dihydrochloride] has a melting point of 185 to 186 °C.
In the case of `CCOc1ccc(C2=NN(c3ccc(C(=O)N4CCN(CCN5CCOCC5)CC4)cc3)C(=O)[C@@H]3CC=CC[C@H]23)cc1OCC.Cl.Cl`, the melting point is reported as 255 °C (dec.).
For `CCOc1ccc(C2=NN(c3ccc(C(=O)N4CCN(c5cccc6[nH]ccc56)CC4)cc3)C(=O)[C@@H]3CC=CC[C@H]23)cc1OCC.Cl` [Compound 21, (4aS,8aR)-4-(3,4-Diethoxy-phenyl)-2-(4-{1-[4-(1H-indol-4-yl)-piperazin-1-yl]-methanoyl}-phenyl)-4a,5,8,8a-tetrahydro-2H-phthalazin-1-one hydrochloride], the melting point was 142 to 145 °C.
For `COc1ccc(C2=NN(Cc3ccc(C(=O)N4CCN(CCCN(C)C)CC4)cc3)C(=O)[C@H]3CC=CC[C@@H]23)c2c1OC(C)(C)C2.Cl.Cl` (relative stereo), the melting point was 247 to 249 °C.
For `CCOc1ccc(C2=NN(c3ccc(C(=O)N4CCN(c5ccc([N+](=O)[O-])cn5)CC4)cc3)C(=O)C3CC=CCC23)cc1OCC` (as salt: hydrochloride) [Compound 18, (4aS,8aR)-4-(3,4-Diethoxyohenyl)-2-(4-{1-[4-(5-nitro-pyridin-2-yl)-piperazin-1-yl]-methanoyl}-phenyl)-4a,5,8,8a-tetrahydro-2H-phthalazin-1-one hydrochloride], the melting point was 117 to 118 °C.
For `CCOc1ccc(C2=NN(c3ccc(C(=O)N4CCN(C=O)CC4)cc3)C(=O)[C@@H]3CC=CC[C@H]23)cc1OCC` [Compound 5, 4-(1-{4-[(4aS,8aR)-4-(3,4-Diethoxyphenyl)-1-oxo-4a,5,8,8a-tetrahydro-1H-phthalazin-2-yl]-phenyl}-methanoyl)-piperazine-1-carbaldehyde], the melting point was 143 to 144 °C.
Work on `COc1ccc(C2=NN(Cc3ccc(C(=O)N4CCN(CCN5CCOCC5)CC4)cc3)C(=O)[C@H]3CC=CC[C@@H]23)c2c1OC(C)(C)C2.Cl.Cl` (relative stereo) yielded a melting point of 210 to 211 °C.
Molecule `CCOc1ccc(C2=NN(c3ccc(C(=O)N4CCN(CCCN5CCOCC5)CC4)cc3)C(=O)[C@@H]3CC=CC[C@H]23)cc1OCC.Cl.Cl` [Compound 22, (4aS,8aR)-4-(3,4-Diethoxy-phenyl)-2-(4-{1-[4-(3-morpholin-4-yl-propyl)-piperazin-1-yl]-methanoyl}-phenyl)-4a,5,8,8a-tetrahydro-2H-phthalazin-1-one dihydrochloride] has a melting point of 170 to 171 °C.
For `COc1ccc(C2=NN(c3ccc(C(=O)N4CCN(CCN5CCOCC5)CC4)cc3)C(=O)[C@@H]3CC=CC[C@H]23)c2c1OC(C)(C)C2.Cl.Cl` [Compound 20, (4aS,8aR)-4-(7-Methoxy-2,2-dimethyl-2,3-dihydro-benzofuran-4-yl)-2-(4-{1-[4-(2-morpholin-4-yl-ethyl)-piperazin-1-yl]-methanoyl}-phenyl)-4a,5,8,8a-tetrahydro-2H-phthalazin-1-one dihydrochloride], the melting point was 271 °C (dec.).
`CCOc1ccc(C2=NN(c3ccc(S(=O)(=O)N4CCN(c5ccccn5)CC4)cc3)C(=O)[C@H]3CC=CC[C@@H]23)cc1OCC` (relative stereo) [Compound 6, (cis)-4-(3,4-Diethoxyphenyl)-2-[4-(4-pyridin-2-yl-piperazine-1-sulfonyl)-phenyl]-4a,5,8,8a-tetrahydro-2H-phthalazin-1-one] showed a melting point of 181 to 182 °C.
Molecule `CCOc1ccc(C2=NN(c3ccc(C(=O)N4CCN(c5nc(-c6ccccc6)ns5)CC4)cc3)C(=O)[C@@H]3CC=CC[C@H]23)cc1OCC` [Compound 17, (4aS,8aR)-4-(3,4-Diethoxyphenyl)-2-(4-{1-[4-(3-phenyl-1,2,4-thiadiazol-5-yl)-piperazin-1-yl]-methanoyl}-phenyl)-4a,5,8,8a-tetrahydro-2H-phthalazin-1-one] has a melting point of 168 to 169 °C.
`COc1ccc(C2=NN(c3ccc(C(=O)N4CCN(C/C=C/c5ccccc5)CC4)cc3)C(=O)[C@@H]3CC=CC[C@H]23)c2c1OC(C)(C)C2.Cl` [Compound 8, (4aS,8aR)-4-(7-methoxy-2,2-dimethyl-2,3-dihydro-benzofuran-4-yl)-2-(4-{1-[4-((E)-3-phenyl-allyl)-piperazin-1-yl]-methanoyl}-phenyl)-4a,5,8,8a-tetrahydro-2H-phthalazin-1-one hydrochloride] gave a melting point of 230 to 231 °C.
In the case of `CCOc1ccc(C2=NN(c3ccc(C(=O)N4CCN(Cc5ccncc5)CC4)cc3)C(=O)[C@@H]3CC=CC[C@H]23)cc1OCC.Cl.Cl` [Compound 25, (4aS,8aR)-4-(3,4-Diethoxy-phenyl)-2-{4-[1-(4-pyridin-4-ylmethyl-piperazin-1-yl)-methanoyl]-phenyl}-4a,5,8,8a-tetrahydro-2H-phthalazin-1-one dihydrochloride], the melting point is reported as 83 to 85 °C.
For `CCOc1ccc(C2=NN(c3ccc(C(=O)N4CCN(C5CCN(C)CC5)CC4)cc3)C(=O)[C@@H]3CC=CC[C@H]23)cc1OCC.Cl.Cl` [Compound 28, (4aS,8aR)-4-(3,4-Diethoxy-phenyl)-2-(4-{1-[4-(1-methyl-piperidin-4-yl)-piperazin-1-yl]-methanoyl}-phenyl)-4a,5,8,8a-tetrahydro-2H-phthalazin-1-one dihydrochloride], the melting point was 275 °C (dec.).
With `CCOc1ccc(C2=NN(c3ccc(C(=O)N4CCN(c5cc(C)nc6ccccc56)CC4)cc3)C(=O)[C@@H]3CC=CC[C@H]23)cc1OCC.Cl` [Compound 26, (4aS,8aR)-4-(3,4-Diethoxy-phenyl)-2-(4-{1-[4-(2-methyl-quinolin-4-yl)-piperazin-1-yl]-methanoyl}-phenyl)-4a,5,8,8a-tetrahydro-2H-phthalazin-1-one hydrochloride] the melting point was 203 to 206 °C (dec.).
In the case of `CCOc1ccc(C2=NN(c3ccc(C(=O)N4CCN(CC5CCCO5)CC4)cc3)C(=O)[C@@H]3CC=CC[C@H]23)cc1OCC.Cl` (stereo partly drawn) [Compound 23, (4aS,8aR)-4-(3,4-Diethoxy-phenyl)-2-(4-{1-[4-(tetrahydro-furan-2-ylmethyl)-piperazin-1-yl]-methanoyl}-phenyl)-4a,5,8,8a-tetrahydro-2H-phthalazin-1-one hydrochloride], the melting point is reported as 131 to 133 °C.
In the case of `CCOc1ccc(C2=NN(c3ccc(C(=O)N4CCN(c5ccc(C(F)(F)F)cn5)CC4)cc3)C(=O)[C@@H]3CC=CC[C@H]23)cc1OCC` [Compound 29, (4aS,8aR)-4-(3,4-Diethoxy-phenyl)-2-(4-{1-[4-(5-trifluoromethyl-pyridin-2-yl)-piperazin-1-yl]-methanoyl}-phenyl)-4a,5,8,8a-tetrahydro-2H-phthalazin-1-one], the melting point is reported as 121 to 123 °C.
For `COc1ccc(C2=NN(Cc3ccc(C(=O)N4CCN(c5cnccn5)CC4)cc3)C(=O)[C@H]3CC=CC[C@@H]23)c2c1OC(C)(C)C2.Cl.Cl` (relative stereo), the melting point was 124 to 126 °C.
Molecule `COc1ccc(C2=NN(c3ccc(C(=O)N4CCN(CCCN(C)C)CC4)cc3)C(=O)[C@@H]3CC=CC[C@H]23)cc1OC.Cl.Cl` [Compound 13, (4aS,8aR)-4-(3,4-Dimethoxyphenyl)-2-(4-{1-[4-(3-dimethylamino-propyl)-piperazin-1-yl]-methanoyl}-phenyl)-4a,5,8,8a-tetrahydro-2H-phthalazin-1-one dihydrochloride] has a melting point of 223 to 226 °C.
With `CCOC(=O)N1CCN(C(=O)c2ccc(N3N=C(c4ccc(OCC)c(OCC)c4)[C@H]4CC=CC[C@H]4C3=O)cc2)CC1` [Compound 7, 4-(1-{4-[(4aS,8aR)-4-(3,4-Diethoxyphenyl)-1-oxo-4a,5,8,8a-tetrahydro-1H-phthalazin-2-yl]-phenyl}-methanoyl)-piperazine-1-carboxylic acid ethyl ester] the melting point was 146 to 147 °C.
Molecule `COc1ccc(C2=NN(c3ccc(C(=O)N4CCN(c5c(Cl)cncc5Cl)CC4)cc3)C(=O)[C@@H]3CC=CC[C@H]23)cc1OC` [Compound 15, (4aS,8aR)-2-(4-{1-[4-(3,5-Dichloropyridin-4-yl)-piperazin-1-yl]-methanoyl}-phenyl)-4-(3,4-dimethoxyphenyl)-4a,5,8,8a-tetrahydro-2H-phthalazin-1-one] has a melting point of 137 to 139 °C.
In the case of `CCOc1ccc(C2=NN(c3ccc(C(=O)N4CCN(CCCN(C)C)CC4)cc3)C(=O)[C@@H]3CC=CC[C@H]23)cc1OCC.Cl.Cl`, the melting point is reported as 248 °C (dec.).
`COc1ccc(C2=NN(c3ccc(C(=O)N4CCN(CC(=O)N5CCCC5)CC4)cc3)C(=O)[C@@H]3CC=CC[C@H]23)cc1OC.Cl` showed a melting point of 160 to 161 °C.
`COc1ccc(C2=NN(c3ccc(C(=O)N4CCN(C(=O)c5ccco5)CC4)cc3)C(=O)C3CC=CCC23)c2c1OC(C)(C)C2` [Compound 9, (4aS,8aR)-2-(4-{1-[4-(1-furan-2-yl-methanoyl)-piperazin-1-yl]-methanoyl}-phenyl)-4-(7-methoxy-2,2-dimethyl-2,3-dihydrobenzofuran-4-yl)-4a,5,8,8a-tetrahydro-2-phthalazin-1-one] showed a melting point of 138 to 140 °C.
`COc1ccc(C2=NN(c3ccc(C(=O)N4CCN(CC(=O)N5CCOCC5)CC4)cc3)C(=O)[C@@H]3CC=CC[C@H]23)cc1OC.Cl` gave a melting point of 168 to 169 °C.
